This is an account of results in PMC3017052, “A Novel Peptide Derived from Human Apolipoprotein E Is an Inhibitor of Tumor Growth and Ocular Angiogenesis” (PLoS ONE, 2011).

One series concerns MDA-MB-231 cells. Format: cell-based, human. The note with it: 48 h. Here is the method:
To confirm that apoEdp affects cell survival, cell viability was determined using the cell titer 96®AQuous One solution cell proliferation kit. ApoEdp treatment of HUVECs induced a dose-dependent inhibition of cell viability (Fig. 1A). […] To determine whether apoEdp suppresses tumor growth by directly affecting tumor cells, we performed a cell viability assay using human breast cancer MDA-MB-231 cell line in vitro and cell titer 96®AQuous One solution cell proliferation kit.
Figure 1 ApoEdp affects HUVEC survival but not MDA-MB-231. A. HUVEC: ApoEdp has a significant effect on VEGF-induced HUVEC viability. Cells were treated with apoEdp at the indicated concentrations and incubated with constant 50 ng/mL VEGF for 48 hr. All values were normalized to cell control of no VEGF and no apoEdp. Cell viability values (mean ± SEM) are expressed as % of the value of the VEGF control. B. MDA-MB-231: ApoEdp has no effect on MDA-MB-231viability. ApoEdp has no significant effect on MDA-MB-231 survival. […] Cell viability values (mean ± SEM) are expressed as % of the value of the control (untreated cells). […]
Cell survival studies were carried out using the CellTiter96 AQueous One solution cell survival assay. […] The cells were incubated for 48 hr and then the AQueous One solution was added to the samples and measured at 490 nm.

Series [1] has as its system VEGF-induced corneal angiogenesis. In words: Rabbit corneal micropocket assay (VEGF-induced angiogenesis). The note with it: 160 ng VEGF pellet, topical 1% eye drops 50 µL 5 times per day for 5 days, compared to saline treated eyes. Format: in vivo. As for the experimental part: To study the in vivo anti-angiogenic effect of apoEdp, we assessed its inhibitory effect on VEGF-induced corneal micro-pocket assay in rabbit eye model. The slow release micropellet (500 µm×500 µm) of 0.4 g of Compritol 888 ATO (Gattefosse) combined with 0.1 g of Squalane oil (Sigma) and 20 mg/mL L-α-phosphatidylcholine containing saline or 160 ng of VEGF were surgically implanted in the corneal micropocket created in the avascular area of rabbit cornea (Fig. 5A–B).
Figure 5 ApoEdp inhibits angiogenesis in rabbit corneal micropocket assay. Slow-releasing micro pellets (500 µm×500 µm) containing 160 ng of VEGF were corneally implanted in New Zealand white rabbits (1.5–2.5 kg). […] (A)The area of neovascular response, vessel length, and clock hours of new blood vessel of rabbits in each group were calculated according to the formula Area (mm^2) = C/12×3.1416 [r^2−(r−L)^ 2] where C = the number of clock hours at the limbus involved in the neovascular response, L = length of the longest neovascular pedicle from the limbus onto anterior cornea, and r = radius of the cornea. […]
Corneal micropockets were created with a modified von Graefe cataract knife in eyes of each […] NZ white rabbit. […] The area of neovascular response, vessel length, and clock hours of new blood vessels of the rabbits in each group were calculated according to the formula [55]. […]

Turning to Ac-LRKLRKRLLLRKLRKRLL-NH2 [apoEdp], in the series with MDA-MB-231 cells, the “50% cytotoxic dose (CC50), MDA-MB-231 viability” value is given as > 300 µM. For the same substance, in series [1], the “VEGF-induced angiogenesis in rabbit corneal micropocket” value is recorded as “significantly inhibited VEGF-induced angiogenesis”.
